Measured values as given in patent US20060025419A1, “Imidazoquinoxaline compound for the treatment of melanoma” (priority 2004, published 2006).

What was measured:
[1] = test system: 15 other kinases including JNK, or mitogen-activated protein kinase-activated protein kinase 2; conditions: cited from earlier work
SK-Mel-5 cells = experiment: Electron microscopy of cultured melanoma cells; assay type: cell-based, human; conditions: 10 μM, 24 h
IKK = molecular target: T1, IKK (Homo sapiens, UniProt O14920+O15111); experiment: IKK immunoprecipitation and in vitro kinase assay from treated SK-Mel-5 cells; assay type: cell-based; conditions: overnight (14 h) treatment, autoradiography (FIG. 2B)
T1 construct: Equal aliquots of cytoplasmic IKK proteins were immunoprecipitated with anti-IKKα/β antibodies; endogenous in cells; host or cells: SK-Mel-5 human melanoma cells, cytoplasmic extract, immunoprecipitated on Protein A/G agarose beads
T1 sequence (O14920 whole entry): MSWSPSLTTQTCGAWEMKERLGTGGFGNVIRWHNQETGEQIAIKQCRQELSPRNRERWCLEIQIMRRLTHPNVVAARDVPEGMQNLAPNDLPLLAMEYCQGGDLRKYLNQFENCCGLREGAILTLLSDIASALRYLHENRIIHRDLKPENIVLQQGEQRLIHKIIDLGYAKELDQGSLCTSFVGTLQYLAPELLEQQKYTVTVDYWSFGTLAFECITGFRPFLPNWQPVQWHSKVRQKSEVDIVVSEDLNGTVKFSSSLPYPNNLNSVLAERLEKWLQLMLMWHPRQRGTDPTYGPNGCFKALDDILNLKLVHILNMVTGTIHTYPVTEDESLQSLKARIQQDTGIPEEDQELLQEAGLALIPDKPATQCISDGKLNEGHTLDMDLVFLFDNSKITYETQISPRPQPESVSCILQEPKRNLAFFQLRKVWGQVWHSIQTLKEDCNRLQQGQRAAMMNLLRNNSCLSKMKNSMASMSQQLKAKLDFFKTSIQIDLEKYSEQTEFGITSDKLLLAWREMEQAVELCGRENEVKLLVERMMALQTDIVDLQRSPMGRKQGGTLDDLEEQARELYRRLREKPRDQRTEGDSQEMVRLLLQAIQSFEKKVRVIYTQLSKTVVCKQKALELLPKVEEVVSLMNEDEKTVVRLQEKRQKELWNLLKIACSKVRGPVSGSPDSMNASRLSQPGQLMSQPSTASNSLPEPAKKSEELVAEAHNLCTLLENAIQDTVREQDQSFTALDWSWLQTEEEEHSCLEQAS
T1 sequence (O15111 whole entry): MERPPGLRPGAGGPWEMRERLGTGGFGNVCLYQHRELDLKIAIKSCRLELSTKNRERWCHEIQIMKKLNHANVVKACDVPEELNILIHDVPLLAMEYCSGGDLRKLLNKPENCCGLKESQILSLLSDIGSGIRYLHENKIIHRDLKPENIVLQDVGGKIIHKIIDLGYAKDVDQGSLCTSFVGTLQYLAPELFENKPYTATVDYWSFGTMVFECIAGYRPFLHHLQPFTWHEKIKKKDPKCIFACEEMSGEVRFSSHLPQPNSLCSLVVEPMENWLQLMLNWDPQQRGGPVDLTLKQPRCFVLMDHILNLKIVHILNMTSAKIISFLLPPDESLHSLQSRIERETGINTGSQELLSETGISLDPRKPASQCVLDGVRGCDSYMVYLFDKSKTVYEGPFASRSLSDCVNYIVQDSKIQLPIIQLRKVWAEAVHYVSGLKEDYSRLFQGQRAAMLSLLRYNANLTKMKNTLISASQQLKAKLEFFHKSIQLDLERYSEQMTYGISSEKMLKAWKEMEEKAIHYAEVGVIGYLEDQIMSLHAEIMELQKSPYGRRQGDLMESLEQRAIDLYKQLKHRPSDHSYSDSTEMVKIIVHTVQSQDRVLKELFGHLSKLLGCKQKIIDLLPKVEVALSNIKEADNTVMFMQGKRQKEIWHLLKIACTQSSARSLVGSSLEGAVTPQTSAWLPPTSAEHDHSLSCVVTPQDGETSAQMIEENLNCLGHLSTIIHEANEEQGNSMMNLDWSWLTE
T1 sequence (Q9Y6K9 whole entry partner): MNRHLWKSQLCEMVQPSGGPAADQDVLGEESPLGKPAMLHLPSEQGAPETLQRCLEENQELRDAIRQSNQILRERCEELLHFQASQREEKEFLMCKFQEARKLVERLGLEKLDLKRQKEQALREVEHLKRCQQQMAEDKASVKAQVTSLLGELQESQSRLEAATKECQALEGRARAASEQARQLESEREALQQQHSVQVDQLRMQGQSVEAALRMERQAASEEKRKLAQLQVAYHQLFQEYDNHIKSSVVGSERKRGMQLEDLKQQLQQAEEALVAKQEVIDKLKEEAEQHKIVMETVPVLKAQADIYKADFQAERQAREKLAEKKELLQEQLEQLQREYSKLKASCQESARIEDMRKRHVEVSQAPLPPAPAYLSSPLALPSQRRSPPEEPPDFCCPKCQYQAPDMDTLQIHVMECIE
Protocol: FIGS. 2A-2D. […] SK-Mel-5 cells were plated in 6-well plates (1.5×10^5 cells per well) and then cotransfected with 1 μg of HIV long terminal repeat NF-κB-luciferase vector and β-galactosidase vector DNA using Lipofectamine Plus reagent. Twenty-four hours after transfection, cells in duplicate plates were treated with 0, 0.1, 1 and 10 μM of BMS-345541in DMSO and incubated for an additional 36 h. Cell extract was prepared and luciferase activity was detected. Luciferase activity was normalized to β-galactosidase activity. […] ATP. The [γ-^32P]-labeled IκBα protein was visualized by autoradiography. […] The supernatants from B were cleared by centrifugation, or (FIG. 2D) sera were collected from mice, and subjected to ELISA assay for CXCL1 according to the manufacture's protocol. Data shown are from a representative data set from two experiments performed in duplicate (total n=4 for each point). For ELISA; the mean value is representative of serum samples from five mice.

A375 tumors = experiment: Melanoma tumor growth in nude mice; assay type: in vivo; conditions: 75 mg/kg orally once daily, 21 days, vs vehicle

## Cc1ccc2nc(NCCN)c3ncc(C)n3c2c1.Cl [BMS-345541, 4(2′-aminoethyl)amino-1,8-dimethylimidazo(1,2-a)quinoxaline]
[1]
  effect on 15 other kinases: failing to affect
SK-Mel-5 cells
  morphology under electron microscopy: typical feature of apoptosis
IKK
  IKK activity in SK-Mel-5 melanoma cells: reduced by BMS-345541 in a concentration-dependent fashion
A375 tumors
  inhibition of tumor growth: 69±11%
